Experimental data reported in patent US20130281396A1, “TREATMENT OF DISEASES BY EPIGENETIC REGULATION” (RVX Therapeutics Inc., priority 2012, published 2013).
Converted amounts (≈) assume the structure as drawn. Where two headings read alike, the source gives them in different places.

How the values were obtained:
Caco-2 cells = assay: Caco-2 permeability (in vitro Caco-2 intestinal transport model); assay type: in vitro ADME
Description: The Caco-2 cell drug transport model is widely used for screening compounds in drug discovery to assess intestinal transport and predict absorption rates.

Brd4 bromodomain 1 = molecular target: T1, Brd4 bromodomain 1 (Homo sapiens, UniProt O60885); assay: Inhibition of tetra-acetylated histone H4 binding to BET bromodomain (TR-FRET); details: His-tagged first bromodomain of Brd4 (200 nM), biotinylated tetra-acetylated histone H4 peptide, 2 hours at room temperature
T1 construct: Illustrative results with the first bromodomain of Brd4; made in house; host or cells: E. coli BL21(DE3)
Experimental: Proteins were cloned and overexpressed with a N-terminal 6×His tag, then purified by nickel affinity followed by size exclusion chromatography. Briefly, E. coli BL21(DE3) cells were transformed with a recombinant expression vector encoding N-terminally Nickel affinity tagged bromodomains from Brd2, Brd3, Brd4. Cell cultures were incubated at 37° C. with shaking to the appropriate density and induced overnight with IPTG. The supernatant of lysed cells was loaded onto Ni-IDA column for purification. Eluted protein was pooled, concentrated and further purified by size exclusion chromatography. Fractions representing monomeric protein were pooled, concentrated, aliquoted, and frozen at −80° C. for use in subsequent experiments.
Binding of tetra-acetylated histone H4 and BET bromodomains was confirmed by a Time Resolved Fluorescence Resonance Energy Transfer (TR-FRET) method. N-terminally His-tagged bromodomains (200 nM) and biotinylated tetra-acetylated histone H4 peptide (25-50 nM, Millipore) were incubated in the presence of Europium Cryptate-labeled streptavidin (Cisbio Cat. #610SAKLB) and XL665-labeled monoclonal anti-His antibody (Cisbio Cat. #61HISXLB) in a white 96 well microtiter plate (Greiner). For inhibition assays, serially diluted test compound was added to these reactions in a 0.2% final concentration of DMSO. Final buffer concentrations were 30 mM HEPES pH 7.4, 30 mM NaCl, 0.3 mM CHAPS, 20 mM phosphate pH 7.0, 320 mM KF, 0.08% BSA). After 2 hours incubation at room temperature, the fluorescence by FRET was measured at 665 and 620 nm by a SynergyH4 plate reader (Biotek). Illustrative results with the first bromodomain of Brd4. The binding inhibitory activity was shown by a decrease in 665 nm fluorescence relative to 620 nm. IC50 values were determined from a dose response curve.

[1] = value from S. P. Ng et al. (2005), footnote *, cited from earlier work

Structure (SMILES)	melting point [°C]	also measured
O=c1cc(-c2ccc(O)c(CO)c2)oc2ncccc12 [Example 13, 2-(4-Hydroxy-3-(hydroxymethyl)phenyl)-4H-pyrano[2,3′-b]pyridine-4-one]	226 to 227	–
Oc1ccc(C=Cc2cc(O)cc(O)c2)cc1 [Resveratrol]	–	Apparent permeability (Papp) (Caco-2 cells): 3.34 ×10⁻⁶ cm/s
O=c1cc(-c2ccc(O)cc2)oc2ccncc12 [Example 6, 2-(4-Hydroxyphenyl)-4H-pyrano[3,2-c]pyridin-4-one]	306 to 308	–
CC(=O)Oc1ccc(-c2cc(=O)c3cccnc3o2)cc1 [Example 12, 4-(4-Oxo-4H-pyrano[2,3-b]pyridine-2-yl)phenyl acetate]	167 to 169	–
COc1cc(-c2cc(=O)c3cccnc3o2)ccc1O [Example 9, 2-(4-Hydroxy-3-methoxyphenyl)-4H-pyrano[2,3-b]pyridine-4-one]	253 to 255	–
O=c1cc(-c2ccc(O)c(Cl)c2)oc2ncccc12 [Example 7, 2-(3-Chloro-4-hydroxyphenyl)-4H-pyrano[2,3-b]pyridine-4-one]	259 to 262	–
O=c1cc(-c2ccc(O)cc2)oc2cnccc12 [Example 3, 2-(4-Hydroxyphenyl)-pyrano[2,3-c]pyridin-4-one]	294 to 296	–
O=c1cc(-c2ccc(O)cc2)oc2cccnc12 [Example 2, 2-(4-Hydroxy-phenyl)-pyrano[3,2-b]pyridin-4-one]	–	FRET activity (<50 uM) (Brd4 bromodomain 1): Active
O=c1cc(-c2ccc(O)c(F)c2)oc2ncccc12 [Example 4, 2-(3-Fluoro-4-hydroxyphenyl)pyrano[2,3-b]pyridine-4-one]	267 to 268	–
Cc1cc(-c2cc(=O)c3cccnc3o2)ccc1O [Example 5, 2-(4-Hydroxy-3-methylphenyl)-4H-pyrano[2,3-b]pyridine-4-one]	300 to 302	–
COc1ccc(-c2cc(=O)c3cccnc3o2)cc1 [Example 10, 2-(4-Methoxyphenyl)-4H-pyrano[2,3-b]pyridine-4-one]	269 to 270	–
O=c1cc(-c2ccc(O)c(Br)c2)oc2ncccc12 [Example 8, 2-(3-Bromo-4-hydroxyphenyl)-4H-pyrano[2,3-b]pyridin-4-one]	267 to 272	FRET activity (<50 uM) (Brd4 bromodomain 1): Active
O=c1cc(-c2ccc(O)cc2)oc2ncccc12 [Example 1, 2-(4-Hydroxy-phenyl)-pyrano[2,3-b]pyridin-4-one]	–	FRET activity (<50 uM) (Brd4 bromodomain 1): Active
CCCO [Propanol]	–	% Transported Paap (Caco-2 cells): 10.1 ×10⁻⁶ cm/s
O=c1cc(-c2ccc(OCCO)cc2)oc2ncccc12 [Example 11, 2-(4-(2-Hydroxyethoxy)phenyl)-4H-pyrano[2,3-b]pyridine-4-one]	157 to 159	–
O=c1cc(-c2ccc(O)cc2)oc2cc(O)cc(O)c12 [5,7-dihydroxy-2-(4-hydroxyphenyl)-4H-chomen-4-one]	–	Apparent permeability (Papp) (Caco-2 cells): 1.5 ×10⁻⁶ cm/s; Solubility (PBS) [1]: 3.37* μM; Solubility (PBS) ([1]; listed as apigenin): 3.27 µM (≈ 0.884 µg/mL)
